In patent US20220202964A1, “HEPARANASE COMPOUNDS AND METHODS OF USE” (University of Florida Research Foundation, Incorporated, priority 2019, published 2022) one finds fluorescence response and fluorescence change data, which are given here for one molecule.

For assay [1], the target named is T1, β-Glucuronidase (Homo sapiens, UniProt P08236).
T1 sequence (P08236 23-651): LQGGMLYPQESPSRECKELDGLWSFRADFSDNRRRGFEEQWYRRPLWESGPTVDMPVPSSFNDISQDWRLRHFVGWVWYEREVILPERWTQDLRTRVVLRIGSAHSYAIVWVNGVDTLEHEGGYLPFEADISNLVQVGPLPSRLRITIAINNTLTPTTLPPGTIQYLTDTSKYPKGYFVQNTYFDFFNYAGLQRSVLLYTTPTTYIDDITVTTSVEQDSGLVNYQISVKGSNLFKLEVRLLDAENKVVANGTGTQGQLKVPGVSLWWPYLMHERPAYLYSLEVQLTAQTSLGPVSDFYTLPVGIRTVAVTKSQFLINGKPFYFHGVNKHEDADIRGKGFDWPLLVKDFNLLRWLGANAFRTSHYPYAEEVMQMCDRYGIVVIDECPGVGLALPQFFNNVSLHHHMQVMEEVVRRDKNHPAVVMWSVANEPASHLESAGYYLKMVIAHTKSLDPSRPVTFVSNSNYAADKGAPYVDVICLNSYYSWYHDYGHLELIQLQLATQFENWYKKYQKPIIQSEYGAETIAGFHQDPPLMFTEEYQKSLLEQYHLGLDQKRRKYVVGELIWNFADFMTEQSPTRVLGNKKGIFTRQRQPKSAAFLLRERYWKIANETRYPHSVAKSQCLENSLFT
Briefly: Fluorescence response to biological species: β-glucuronidase. Format: biochemical. The following applies: 5 μM; β-glucuronidase 5 μg; 4 h, 37° C. As for the experimental part:
(§1) 5 μM compound 1 (HADP) was incubated with various biological species at the indicated amount/concentration in 96-well microplate. Cysteine (5 mM), Glutathione (5 mM), H2O2 (100 μM), Esterase, Chondroitinase ABC, Hyaluronidase, Lysozyme, β-Glucuronidase, β-Glucosidase (5 μg each) and heparanase (2 μg). For Chondroitinase ABC and Hyaluronidase, 50 μg was also tested. Each sample was performed in triplicates. Then the microplate was sealed with sealing film and incubated at 37° C. for 4 hours. Fluorescence intensity was recorded on Spectramax M5 Multimode plate reader (Molecular Devices, USA). λex/em=365 nm/455 nm.

The target of assay [2] is T2, Chondroitinase ABC (Proteus vulgaris, UniProt P59807).
T2 sequence (P59807 25-1021): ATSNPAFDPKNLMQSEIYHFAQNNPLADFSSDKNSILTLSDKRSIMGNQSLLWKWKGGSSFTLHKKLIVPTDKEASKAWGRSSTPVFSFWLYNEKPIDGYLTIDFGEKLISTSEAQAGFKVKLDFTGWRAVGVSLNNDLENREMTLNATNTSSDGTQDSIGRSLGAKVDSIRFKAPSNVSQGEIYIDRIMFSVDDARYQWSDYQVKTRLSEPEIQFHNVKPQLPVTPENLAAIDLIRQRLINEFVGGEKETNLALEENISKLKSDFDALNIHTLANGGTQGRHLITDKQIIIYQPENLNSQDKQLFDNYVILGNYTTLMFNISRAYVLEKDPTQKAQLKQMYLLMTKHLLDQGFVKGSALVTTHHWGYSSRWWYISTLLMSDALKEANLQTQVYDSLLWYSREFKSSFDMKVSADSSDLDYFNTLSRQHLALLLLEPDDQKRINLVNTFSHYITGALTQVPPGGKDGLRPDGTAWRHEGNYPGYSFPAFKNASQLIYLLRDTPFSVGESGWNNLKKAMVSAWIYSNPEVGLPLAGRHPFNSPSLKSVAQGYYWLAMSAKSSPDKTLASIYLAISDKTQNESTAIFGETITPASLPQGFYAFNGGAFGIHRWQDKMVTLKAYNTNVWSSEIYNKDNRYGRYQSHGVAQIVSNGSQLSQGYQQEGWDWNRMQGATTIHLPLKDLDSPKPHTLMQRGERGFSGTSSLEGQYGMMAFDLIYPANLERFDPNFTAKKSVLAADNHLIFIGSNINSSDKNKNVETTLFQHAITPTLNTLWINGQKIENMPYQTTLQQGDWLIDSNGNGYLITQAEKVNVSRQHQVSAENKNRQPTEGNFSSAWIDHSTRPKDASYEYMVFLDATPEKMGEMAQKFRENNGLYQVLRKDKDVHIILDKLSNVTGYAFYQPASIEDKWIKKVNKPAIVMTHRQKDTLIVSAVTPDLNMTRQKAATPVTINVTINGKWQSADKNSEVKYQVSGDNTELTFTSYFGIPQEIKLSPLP
Briefly: Fluorescence response to biological species: chondroitinase. Format: biochemical. The following applies: 5 μM; chondroitinase 5 μg (50 μg also tested); 4 h, 37° C. As for the experimental part:
as §1

Assay [3] is described as follows: Fluorescence response to biological oxidizing and reducing species. The following applies: 5 μM; 100 μM H2O2, 5 mM GSH and Cys; 4 h, 37° C. As for the experimental part: as §1

Take `Cc1cc(=O)oc2c(F)c(O[C@@H]3O[C@H](C(=O)O)[C@@H](O[C@H]4O[C@H](CO)[C@@H](O)[C@H](O)[C@H]4NS(=O)(=O)O)[C@H](O)[C@H]3O)c(F)cc12` [Compound 1]: the fluorescence response result in assay [1] is “did not trigger fluorescence response”. The fluorescence change result in assay [2] is “did not afford obvious fluorescence change”; in assay [3], “No fluorescence change”.
